Test results taken from patent US20210268129A1, “Theranostic Radiophotodynamic Therapy Nanoparticles” (priority 2018, published 2021).

Legend:
[1] = test system: prostate cancer cell line DU145
Procedure: (§1) To confirm, baseline toxicity experiments were conducted with the fully assembled nanoparticles and its constituents. […] MTT assays detected changes in cell proliferation and viability.

[2] = test system: normal skin fibroblast cell line GM38
Procedure: as §1

[3] = test system: prostate cancer cell line PC3
Procedure: as §1

Measured: baseline cytotoxicity over increasing doses

C=CC1=C(C)c2cc3[nH]c(cc4nc(cc5[nH]c(cc1n2)c(C)c5CCC(=O)O)C(CCC(=O)O)=C4C)c(C)c3C=C [PPIX, protoporphyrin IX]
No appreciable differences: all assays above
